Patent US6689742B1, “NY-ESO-1 peptide derivatives, and uses thereof” (Chancellors, Masters and Scholars of the University of …, priority 2000, dated 2004)

Experiments:
clonal CTLs = test: recognition of peptide-pulsed T2 cells by clonal CTLs, 51Cr release; assay type: cell-based, human; details: T2 cells pulsed with varying concentrations of peptide
Description: Varying concentrations of peptide were used to pulse T2 cells. […] The same ^51Cr release assay described supra was used. Prior to testing the CTLs, these were assayed to determine if they each expressed a single T cell receptor.

HLA-A*0201 molecules = HLA-A*0201 molecules (Homo sapiens, UniProt P04439, D140Y/D185E/D98H/E176V/E277Q/G131W/G231S/I119V/I121R/I166T/I218V/L300P/L318F/N151K/N90K/P208A/P217A/Q86G/Q94H/R138H/R169H/T345S); test: functional competition binding assay (inhibition of lysis of SEQ ID NO: 4 pulsed T2 cells by CTL clone LAU 132/2)
[1] = test system: ESO1 specific CTL clone ESO5; test: recognition by specific CTLs, 51Cr release from peptide-pulsed T2 cells; assay type: cell-based, human; details: for EC50: T2 targets, CTL clone ESO5, lymphocyte:target ratio 30:1, 4 hours, read-out: Peptide ([nM] 50%), concentration giving 50% maximal activity; for Relative antigenic activity: [nM] 50% of SEQ ID NO: 2 divided by [nM] 50% of test peptide
[2] = test system: HLA-A2 restricted NY-ESO-1 specific CTLs (CTL NW38-IVS-1); test: 51Cr release cytotoxicity assay, peptide-pulsed T2 cells with CTL NW38-IVS-1; assay type: cell-based, human; details: 10 ug/ml peptide, effector/target ratio 90:1, four hours
[3] = test system: NY-ESO-1 specific T cells (tumor infiltrating lymphocytes); test: IFN-γ ELISPOT of short term tumor infiltrating lymphocyte culture with T2 cells plus peptide; assay type: cell-based, human; details: 1 μM peptide, 2×10^3 cultured cells/well, 5×10^4 T2 cells/well; control cultures 19 spots
Text: Samples of lymph nodes or metastatic lesions were taken from a patient who presented slowly progressive melanoma with recurrent metastases, all of which were localized to the same paravertebral region. […] Further, the patient's serum indicated high titer of anti-NY-ESO-1 antibodies.
The surgically resected lymph nodes or metastatic lesions were finely minced in sterile, RPMI 1640 medium that had been supplemented with 10% fetal calf serum. Suspensions of cells were placed in 24-well tissue culture plates, in 2 ml of Iscove's Dulbecco medium, supplemented with 0.24 mM Asn, 0.55 mM Arg, 1.5 mM Gln, 10% pooled human A+ serum, 100 U/ml IL-2, and 10 ng/ml of IL-7. The cells were cultured for 2-3 weeks, prior to being assayed via IFN-γ ELISPOT, in accordance with Czerkinsky, et al, J. Immunol. Meth 110:29 ([…]), incorporated by reference. In brief, 2×10^3 cells/well of the short term culture referred to supra were combined with either 5×10^4 T2 cells/well, or the same number of T2 cells, plus 1 μM of one of SEQ ID NOS: 1-3. Each culture was run in duplicate.

[4] = test system: SEQ ID NO: 2 specific CTLs; test: killing specificity of tetramer-sorted CTLs, 51Cr release; assay type: cell-based, human; details: 1 μM peptide, effector/target ratios 1:1 and 0.3:1; unpulsed T2 not killed
Description: These tetramers were then used to stain a sample of cells taken from a patient who had been diagnosed previously as having a NY-ESO-1 positive melanoma. See Dunbar, et al., J. Immunol 162(12):6959-62(1999) and Ser. No. 09/049,850, filed Mar. 27, 1998, incorporated by reference. In brief, however, peripheral blood lymphocyte (“PBL”) samples were stained with tetramers for 15 minutes at 37° C., followed by washing in PBS/1% FCS at 37° C., followed by incubation with a labelled, anti-CD8 antibody for 30 minutes, on ice. The cells were then washed three times, in ice cold PBS/1% FCS, and were then analyzed via flow cytometry.
The CTLs described supra were then tested for killing specificity. […] Killing was determined using the ^51Cr release assay described supra.

[5] = test system: NA8-MEL (A2+, NY-ESO-1-) cells; test: 51Cr release assay, CTL ESO5 on A2+ melanoma cell lines with or without peptide; assay type: cell-based, human; details: exogenously added peptide; not lysed when absent
Description: Cell lines NA8-MEL (A2^+, NY-ESO-1^−), SK-MEL37 (A2^+, NY-ESO-1^+), and Me 275 (A2^+, NY-ESO-1^+) were tested, in ^51Cr release assays, as described supra.

CTLs = test: 51Cr release assay in presence of reducing agent (DTT or TCEP); assay type: cell-based, human; details: 200 μM DTT or TCEP
[6] = test system: NY-ESO-1 157-165 specific CTLs; test: CTL assays of modified peptides; assay type: cell-based, human
Description: All of these peptides were tested in CTL assays of the type described supra.

| Substance | EC50 [1] [nM] | recognition by all T cells (clonal CTLs) (clonal CTLs) | stimulation of HLA-A2 restricted NY-ESO-1 specific CTLs (51Cr release) [2] | also measured |
| --- | --- | --- | --- | --- |
| 157-164: a peptide consisting of the first 8 amino acids of SEQ ID NO: 11 (SLLMWITQ; listed as Homo sapiens) |  | failed to recognize |  |  |
| SLLMWITQCF (listed as Homo sapiens) [SEQ ID NO: 11] |  | recognized |  |  |
| SLLMWITQCFL [SEQ ID NO: 1, natural NY-ESO-1 peptide] | 50 | failed to recognize | three best stimulators | mean number of spots (IFN-γ ELISPOT) [3]: 396 spots; Relative antigenic activity [1]: 0.012 |
| SLLMWITQCI (Mutagen 10 Synthesized. At position 10 of SEQ ID NO 11, Phe is replaced by Ile) [SEQ ID NO: 14] |  |  |  | recognition compared to SEQ ID NO: 2, in words [6]: recognized more efficiently |
| SLLMWITQI (Mutagen 9 Synthesized. At position 9, of SEQ ID NO2,Cys is replaced by Ile) [SEQ ID NO: 12] |  |  |  | increase of recognition by NY-ESO-1 157-165 specific CTLs as compared to SEQ ID NO: 2 [6]: about 1000 fold |

Second part, led by results:

| EC50 [1] [nM] | Substance | recognition by all T cells (clonal CTLs) (clonal CTLs) | stimulation of HLA-A2 restricted NY-ESO-1 specific CTLs (51Cr release) [2] | also measured |
| --- | --- | --- | --- | --- |
| 50 | QLSLLMWIT [SEQ ID NO: 3, natural NY-ESO-1 peptide] | recognized | three best stimulators | fold less efficient competitor than SEQ ID NO: 4 (HLA-A*0201 molecules): 100 fold; Relative antigenic activity [1]: 0.012 |
| 0.6 | SLLMWITQC [SEQ ID NO: 2, natural NY-ESO-1 peptide, parental peptide] | recognized | three best stimulators | mean number of spots (IFN-γ ELISPOT) [3]: 424 spots; killing of peptide-pulsed T2 cells by CTLs [4]: killed; lysis of NA8-MEL by CTL ESO5 when peptide added [5]: lysed; recognition by CTL, in words ([1]; CTL clone ESO5, compared with parental peptide SEQ ID NO: 2): optimally recognized antigenic peptide; increase of antigenicity in the presence of reducing agent (CTLs): 10 fold |
| 0.01 | SLLMWITQL [SEQ ID NO: 7] |  |  | increase of recognition by NY-ESO-1 157-165 specific CTLs as compared to SEQ ID NO: 2 [6]: about 1000 fold |
